The source made the active and inactive calls. How the calls were made is not given here. Where only a bound is given, the exact number is not on record here.

The experiment deals with Serine/threonine-protein kinase mTOR (Homo sapiens) (UniProt P42345). Put plainly: binders of mTOR FRB domain, biophysical, NMR (AID 1648). Particulars: NMR binding to FRB domain, chemical shift.
Serine/threonine-protein kinase mTOR (Homo sapiens), sequence (P42345 2015-2114): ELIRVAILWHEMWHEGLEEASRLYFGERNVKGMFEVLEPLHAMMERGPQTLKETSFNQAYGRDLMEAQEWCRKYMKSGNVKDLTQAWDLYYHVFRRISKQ
One may read the Kd as a measure of binding affinity in units of concentration. Consider `Cc1n[nH]c(=S)n1-c1ccc(C(=O)O)cc1`, for which the Kd was > 4 mM (inactive). In the case of `COC(=O)c1cc2ccccc2cn1`, the Kd was > 4 mM (inactive). In the case of `O=C(O)c1cnc2n(c1=O)CCS2`, the Kd is > 4 mM (inactive). For the compound `[O-][n+]1c2ccccc2[n+]([O-])c2cc(O)ccc21`, the Kd was > 4 mM (inactive). For `O=C1CCC(=O)N1c1nc2ccccc2s1` the value was > 4 mM (inactive); for `OCc1ccc(CN2CCOCC2)cc1`, > 4 mM (inactive). For `CCn1cnc2scc(-c3ccccc3)c2c1=O` the value was > 4 mM (inactive). As to `Cc1ccc(-c2c(C)n([O-])c(C)c(C)[n+]2=O)cc1`, the Kd is > 4 mM (inactive). On to `C=C[C@@](C)(O)CCC1C(=C)C[C@H](O)C2C(C)(C)CCCC12C` (stereo partly specified), for which the Kd is > 4 mM (inactive). As for `Cc1noc(C)c1CSc1nc2ccccc2[nH]1`, the Kd is > 4 mM (inactive). For the compound `CCOc1nc(C)ccc1-c1noc(-c2ccncc2)n1`, the Kd was > 4 mM (inactive). On to `CCc1c(C(=O)Nc2ccncc2)csc1C`, for which the Kd is > 4 mM (inactive). For `O=C(NCc1cccc(Cl)c1)c1cccnc1` the value was > 4 mM (inactive); for `CCOC(=O)CC1NCCNC1=O` (stereo unspecified), > 4 mM (inactive). For `Nc1c(F)c(F)nc(F)c1F` the value was > 4 mM (inactive); for `O=c1cnnc(N2CCCCC2)[nH]1`, > 4 mM (inactive). The result for `Cc1nc2ccccc2c(=O)n1/N=C/c1ccco1` reads > 4 mM (inactive); that for `Cc1cc(C)cc(OC(=O)N2CCOCC2)c1`, > 4 mM (inactive).

With `Cn1cc(C(=O)N/N=C/c2ccccc2)ccc1=O`, the Kd was > 4 mM (inactive).

Turning to `Cc1ncoc1C(=O)Nc1ncc([N+](=O)[O-])s1`, the Kd was > 4 mM (inactive). For `O=c1[nH]cc(S(=O)(=O)Nc2ccccc2)c(=O)[nH]1` the value was > 4 mM (inactive); for `CCC(=O)OC1[C@@H]2CC3=C4CC(=O)O[C@@H](c5ccoc5)[C@]4(C)CCC3C(C)(C2=O)[C@@H](CC(=O)OC)C1(C)C` (stereo partly specified), > 4 mM (inactive).

Consider `CCN1CCc2c(sc(N)c2C#N)C1`, for which the Kd was > 4 mM (inactive). The result for `O=c1[nH]c(O)c(C=NC2CC2)c(=O)[nH]1` reads > 4 mM (inactive).

On to `COc1nc(N2CCOCC2)nc(N)c1[N+](=O)[O-]`, for which the Kd is > 4 mM (inactive). For `O=C1C2C3C=CC(C3)C2C(=O)N1CCCO` (stereo unspecified), the Kd is > 4 mM (inactive). As for `c1cncc(Nc2nc(-c3ccncc3)cs2)c1`, the Kd was > 4 mM (inactive).

Regarding `Cc1cc(C(=O)Nc2nnc(C(F)(F)F)s2)no1`, the Kd is > 4 mM (inactive). The result for `S=C(CN1CCCC1=S)N1CCOCC1` reads > 4 mM (inactive); that for `COc1ccccc1/C=C/CN1CCOCC1`, > 4 mM (inactive); that for `Cc1cc(N)n(-c2ccccc2)n1`, > 4 mM (inactive). For `c1cncc(C(N2CCOCC2)N2CCOCC2)c1` the value was > 4 mM (inactive). As for `CC(C)c1ccccc1NC(=O)c1cnccn1`, the Kd was > 4 mM (inactive). For `COc1cc2c3cc1Oc1c(OC)c(OC)cc4c1[C@@H](Cc1cccc(c1)Oc1ccc(c(O)c1)C[C@@H]3N(C)CC2)N(C)CC4` the value was > 4 mM (inactive). The result for `O=S(=O)(NCc1ccco1)N1CCOCC1` reads > 4 mM (inactive); that for `CC(=O)Nc1ccc(S(=O)(=O)Nc2cc(C)on2)cc1`, > 4 mM (inactive); that for `CC(=O)c1c(C)n([O-])c2ccccc2[n+]1=O`, > 4 mM (inactive). The result for `NC(=O)c1ccsc1N` reads > 4 mM (inactive); that for `Nc1ccc(N2CCOCC2)cc1`, > 4 mM (inactive). As for `COc1ccc(-c2oc3c(CC=C(C)C)c(O[C@@H]4O[C@H](CO)[C@@H](O)[C@H](O)[C@H]4O)cc(O)c3c(=O)c2O[C@@H]2O[C@@H](C)[C@H](O)[C@@H](O)[C@H]2O)cc1`, the Kd was > 4 mM (inactive). With `Cc1nn2c3ccccc3nc2n(Cc2ccccc2)c1=O`, the Kd was > 4 mM (inactive). For `COc1ccc(C(N)=O)cc1N` the value was > 4 mM (inactive); for `Cc1cc(NC(=O)CSc2nncn2C)no1`, > 4 mM (inactive). For `c1ccc(CCc2nc(-c3cccnc3)no2)cc1` the value was > 4 mM (inactive). The result for `COc1cc([C@@H]2c3cc4c(c(O)c3C[C@H]3COC(=O)[C@@H]32)OCO4)cc(OC)c1OC` reads > 4 mM (inactive); that for `COC(=O)Nc1ccc2ncn(C)c(=O)c2c1`, > 4 mM (inactive). As to `c1ccc(Cc2nnc(-c3ccccc3)o2)cc1`, the Kd is > 4 mM (inactive).

On to `O=C(O)c1ccc(NC(=O)c2cccs2)cc1`, for which the Kd was > 4 mM (inactive). With `O=C(O)c1ccc2ncccc2c1`, the Kd was > 4 mM (inactive). Consider `Cc1c(N=Cc2ccc[nH]2)c(=O)n(-c2ccccc2)n1C`, for which the Kd is > 4 mM (inactive). With `Cc1nnc(NCc2ccc3c(c2)OCO3)[nH]c1=O`, the Kd was > 4 mM (inactive). Regarding `NC(=O)CSCc1c(Cl)cccc1Cl`, the Kd is > 4 mM (inactive). The result for `O=C(/C=C/c1ccccc1)NC1CCS(=O)(=O)C1` (stereo unspecified) reads > 4 mM (inactive). Turning to `Nc1ncnc(NCCO)c1[N+](=O)[O-]`, the Kd is > 4 mM (inactive). For `COc1cc(OC)c2c(=O)c(-c3ccccc3)coc2c1` the value was > 4 mM (inactive); for `CS(C)=C1C(=O)NC(=O)N(Cc2ccc(F)cc2)C1=O`, > 4 mM (inactive). The result for `CN1CCC=C(C(=O)O)C1` reads > 4 mM (inactive); that for `C[C@@H]1O[C@@H](O[C@H]2[C@H](Oc3cc(O)c4c(=O)cc(-c5ccc(O)cc5)oc4c3)O[C@H](CO)[C@@H](O)[C@@H]2O)[C@H](O)[C@H](O)[C@H]1O`, > 4 mM (inactive). The result for `c1ccc(-c2nc3ccccc3nc2-c2ccccn2)nc1` reads > 4 mM (inactive). With `CC(=O)N=c1cccc(NC(C)=O)n1O`, the Kd is > 4 mM (inactive). For `CCOCC(=O)N1CCc2ccccc21` the value was > 4 mM (inactive); for `OCn1nnn(-c2ccccc2)c1=S`, > 4 mM (inactive); for `C=C(C)[C@H]1COc2cc3oc(=O)ccc3cc2O1`, > 4 mM (inactive). Turning to `Cc1cccc(NS(=O)(=O)c2cccs2)n1`, the Kd was > 4 mM (inactive). The result for `NC(Cc1c[nH]c2ccccc12)C(=O)O` (stereo unspecified) reads > 4 mM (inactive). The result for `Cn1nc(C(=O)Nc2cccnc2)c2ccccc2c1=O` reads > 4 mM (inactive); that for `COc1cc(-c2coc3cc(O[C@@H]4O[C@H](CO)[C@@H](O)[C@H](O)[C@H]4O)c(OC)c(O)c3c2=O)cc(O)c1OC`, > 4 mM (inactive); that for `C[C@]12CC(=O)C3C(CC[C@@H]4C[C@H](O)CC[C@]34C)C1CC[C@]2(O)C(=O)CO` (stereo partly specified), > 4 mM (inactive).

Regarding `O=C1NC(=O)C(=Cc2ccccc2)C(=O)N1`, the Kd was > 4 mM (inactive). In the case of `Nc1cc(-c2ccco2)[nH]n1`, the Kd was > 4 mM (inactive). Consider `O=C1CC(N2CCC(O)CC2)C(=O)N1c1ccc(F)cc1` (stereo unspecified), for which the Kd was > 4 mM (inactive). Take `CC(C)(CO)NC(=O)c1ccccc1F`: the Kd is > 4 mM (inactive). For `O=C(NCc1ccccc1)c1ccc[n+]([O-])c1` the value was > 4 mM (inactive); for `C=C1C([C@]2(C)C(CC(=O)OC)[C@@](C)(COC(C)=O)OC(=O)C[C@@H]2OC(C)=O)[C@@H](OC=O)[C@H](OC(=O)C(O)C(C)CC)[C@@]2(C)[C@H](c3ccoc3)CC(=O)C12O` (stereo partly specified), > 4 mM (inactive); for `Nc1cccc(OC(F)(F)F)c1`, > 4 mM (inactive). For `CCN1CCC(=NO)CC1` the value was > 4 mM (inactive); for `Nc1cc(=O)[nH]c(=S)n1-c1cccc(C(F)(F)F)c1`, > 4 mM (inactive). For `NC(=O)CN=Cc1c(O)[nH]c2ccccc12` the value was > 4 mM (inactive); for `S=c1[nH]c2cccnc2[nH]1`, > 4 mM (inactive); for `O=C(O)CC1NCCNC1=O` (stereo unspecified), > 4 mM (inactive). On to `NC(=O)COc1ccccc1O`, for which the Kd is > 4 mM (inactive). With `CSc1ccccc1NC(=O)c1cnccn1`, the Kd was > 4 mM (inactive). Take `O=C1NC(=S)N/C1=C/c1ccsc1`: the Kd was > 4 mM (inactive). For `CCOC(=O)c1c(C)nc2ncccn12` the value was > 4 mM (inactive). For `NC1=NC(=O)/C(=C\c2cccc(C(=O)O)c2)S1` the value was > 4 mM (inactive). Turning to `CC(=O)Nc1cccc(-c2nc3ccccc3c(=O)o2)c1`, the Kd is > 4 mM (inactive). For `COc1cc(/C=C2\SC(=S)NC2=O)ccc1O`, the Kd is > 4 mM (inactive). For `Nc1nc(-c2ccncc2)cs1` the value was > 4 mM (inactive); for `Cc1nnc(NCCO)[nH]c1=O`, > 4 mM (inactive); for `Cc1nc2ccccc2c2c1C(=O)N(C)C2=O`, > 4 mM (inactive). The result for `CCc1noc(C)c1C(=O)Nc1ncc(C)s1` reads > 4 mM (inactive); that for `COc1cc2c(cc1O)CCNC2C` (stereo unspecified), > 4 mM (inactive); that for `Cc1onc(-c2c(Cl)cccc2Cl)c1C(N)=O`, > 4 mM (inactive). Take `O=C(NN1C(=O)c2ccccc2C1=O)c1cccs1`: the Kd is > 4 mM (inactive). Regarding `COc1cc2c(cc1-c1coc3c4c(c(OC)cc3c1=O)OC(C)(C)C=C4)OCO2`, the Kd was > 4 mM (inactive). For `Cc1nc2nc(-c3ccco3)nn2c(C)c1Cl` the value was > 4 mM (inactive). For the compound `O=C1CS/C(=N/S(=O)(=O)c2ccccc2)N1`, the Kd is > 4 mM (inactive). Take `N#CCc1nc2ccccc2s1`: the Kd is > 4 mM (inactive).

In the case of `CNC(=O)C(=O)Nc1cccc(Cl)c1`, the Kd is > 4 mM (inactive). For `CNC(Cc1c[nH]c2ccccc12)C(=O)O` (stereo unspecified) the value was > 4 mM (inactive); for `NC(=O)c1ccccc1N=Cc1ccco1`, > 4 mM (inactive).

The values are drawn from PubChem BioAssay AID1648 (Sanford-Burnham Center for Chemical Genomics, 2009).
